Patent EP0080779B1, “3-Benzazepines as alpha-2 antagonists” (SMITHKLINE BECKMAN CORPORATION, priority 1981, dated 1983)

Tests used:
[1] = test system: conscious normotensive rabbits; assay: rabbit intraocular pressure determination, compound given systemically (ear vein infusion); assay type: in vivo; settings: given systemically to rabbits; result in words
[2] = test system: normotensive and hypertensive rats; assay: antihypertensive activity in conscious cannulated rats, i.v. administration; assay type: in vivo
Protocol: (§1) Cannulas are run intradermally so as to be externalized in the dorso-sacral area of either side and kept in place by wound clips. The rats are allowed to regain consciousness after being placed in a small animal restrainer. The arterial cannula is connected to a pressure transducer for constant blood pressure and heart rate monitoring. Drugs are administered either orally via gavage or i.v. via the femoral vein cannula at a rate of 0.06 ml./minute.
(§2) The above test is conducted on both normotensive and hypertensive rats. DOCA Salt hypertensive rats are prepared from male uninephrectomized Sprague-Dawley rats. The rats, approximately six weeks of age, are lightly anesthetized with ether and subcutaneously implanted with a 25 mg. deoxycorticosterone acetate pellet in the left dorso-sacral area. Six days later a second pellet is implanted in the right dorso-sacral area. These rats are fed a normal laboratory diet, but are given 1% saline solution to drink in place of water. The rats are kept on the saline drinking water for 22-24 days.
The following table sets forth the effect of 6-chloro-2,3,4,5-tetrahydro-3-methyl-1 H-3-benzazepine on blood pressure after i.v. administration to both normotensive and hypertensive rats.

[3] = test system: rabbit intraocular pressure; assay: normal rabbit intraocular pressure determination, instillation into the eye; assay type: in vivo; settings: instilled into the rabbit eye; at one hour; relative to the untreated eye
Protocol: The measurement of intraocular pressure depends on subjecting the eye to a force that indents or flattens it. Either the effect of a particular force or the force for a given effect is measured. The specific procedure employed for the compounds of this invention is a normal rabbit intraocular pressure determination. A solution of 0.5% proparacaine hydrochloride diluted 1:10 with physiological saline is instilled into the eye of a rabbit. The lids are gently massaged over the cornea to insure good distribution of the solution. The eye is exposed by separating the lids and the tip of a probe is slowly placed on the cornea at the point where the curvature of the cornea is the greatest, i.e., on the optic axis. Employing an Alcon Applanation Pneumatonograph, the intraocular pressure is determined in each eye until a stable reading is obtained. West, C., Capelta, J. and Kaufman, H., Am. J. Ophthalmol. 74:505 (1972).
Nine rabbits are used in each study, three animals for each dose in most circumstances. […] Immediately following the initial reading, the formulations to be tested, comprising concentrations of 0.01 to 10% of active ingredient, are instilled and pressure readings are taken at 0.5, 1, 2, 3, 4, and 6 hours post-instillation. The intraocular pressure is determined from the value recorded on the pneumotonograph chart paper. A mean intraocular pressure value is calculated at each time point. […]

[4] = test system: DOCA-salt hypertensive rat; assay: antihypertensive activity in DOCA-salt hypertensive rat, oral administration; assay type: in vivo
Protocol: as §1, §2
The effect of the oral administration of 6-chloro-2,3,4,5-tetrahydro-3-methyl-1H-3-benzazepine on blood pressure in the DOCA-salt hypertensive rat was also determined.

alpha2 adrenoceptor = assay: prejunctional alpha2 antagonist activity, isolated superfused guinea pig left atrium (shift of the clonidine concentration-response curve); assay type: cell-based
Protocol: Briefly, the heart is removed from a pentobarbital-anesthetized male guinea pig. The left atrium is removed, dissected free of extraneous tissue and mounted in a 2 ml. superfusion chamber. The tissue is paced at 60 pulse/minute and the sympathetic nerves excited at 6 minute intervals by field stimulation. The response to nerve stimulation is measured as the difference in contractile force between the basal contraction and peak contraction following a nerve stimulation. A concentration-response curve for clonidine (alpha2 agonist) is prepared by administering an increasing concentration of clonidine following each successive stimulation. The tissue is then superfused with the alpha2 antagonist to be tested for thirty minutes and the clonidine concentration- effect curve was repeated in the presence of antagonist. The receptor dissociation constant of the antagonist (KB) is defined as the antagonist concentration required to shift the log concentration-response curve of the agonist to the right by a factor of 2.

| Structure (SMILES) | effect on systemic blood pressure [1] | Diastolic Blood Pressure Decrease BP ([2]; DOCA Salt Hypertensive rats, n = 4, 0.5 mg/kg I.V., Pre Drug 135 ± 5 MMHg) [MMHg] | Diastolic Blood Pressure Decrease BP ([2]; DOCA Salt Hypertensive rats, n = 4, 1.0 mg/kg I.V., Pre Drug 135 ± 5 MMHg) [MMHg] | Diastolic Blood Pressure Decrease BP ([2]; Normotensive (control) (Sprague-Dawley) rats, n = 4, 0.5 mg/kg I.V., Pre Drug 95 ± 7 MMHg) [MMHg] | Diastolic Blood Pressure Decrease BP ([2]; Normotensive (control) (Sprague-Dawley) rats, n = 4, 1.0 mg/kg I.V., Pre Drug 95 ± 7 MMHg) [MMHg] | Diastolic Blood Pressure Decrease BP ([2]; Normotensive (control) (Wistar-Kyoto) rats, n = 4, 0.5 mg/kg I.V., Pre Drug 115 ± 3 MMHg) [MMHg] | Diastolic Blood Pressure Decrease BP ([2]; Normotensive (control) (Wistar-Kyoto) rats, n = 4, 1.0 mg/kg I.V., Pre Drug 115 ± 3 MMHg) [MMHg] | Diastolic Blood Pressure Decrease BP ([2]; Spontaneously Hypertensive rats, n = 7, 0.5 mg/kg I.V., Pre Drug 167 ± 3 MMHg) [MMHg] | Diastolic Blood Pressure Decrease BP ([2]; Spontaneously Hypertensive rats, n = 7, 1.0 mg/kg I.V., Pre Drug 167 ± 3 MMHg) [MMHg] | decrease of intraocular pressure [3] | Δ BP ([4]; 2 mg/kg PO) [MM Hg] | Mean Arterial Pressure Post-Drug ([4]; 2 mg/kg PO, Pre-Drug 148 ± 11) | Δ BP ([4]; 5 mg/kg PO) [MM Hg] | Mean Arterial Pressure Post-Drug ([4]; 5 mg/kg PO, Pre-Drug 160 ± 7) | Δ BP ([4]; 10 mg/kg PO) [MM Hg] | Mean Arterial Pressure Post-Drug ([4]; 10 mg/kg PO, Pre-Drug 167 ± 8) | alpha2 antagonist activity relative to the 6-chloro derivative (alpha2 adrenoceptor; comparison of KB values) | Kb (alpha2 adrenoceptor; isolated perfused guinea pig left atrium, antagonist concentration shifting the clonidine curve to the right by a factor of 2) [nM] |
| --- | --- | --- | --- | --- | --- | --- | --- | --- | --- | --- | --- | --- | --- | --- | --- | --- | --- | --- |
| CN1CCc2cccc(Cl)c2CC1 [6-chloro-2,3,4,5-tetrahydro-3-methyl-1H-3-benzazepine] | no significant effect | 27 ± 3 | 33 ± 4 | 6 ± 2 | 13 ± 1 | 7 ± 2 | 10 ± 2 | 33 ± 7 | 46 ± 2 | 3.5 mm of mercury | 17 ± 3 | 131 ± 12 | 34 ± 4 | 127 ± 5 | 68 ± 8 | 99 ± 4 | – | – |
| CN1CCc2ccc(Cl)cc2CC1 [7-chloro-2,3,4,5-tetrahydro-3-methyl-1H-3-benzazepine] | – | – | – | – | – | – | – | – | – | – | – | – | – | – | – | – | about one tenth | 150 |
